From patent publication US20210332436A1, “STEM CELL-BASED MULTIPLEX METHODS AND COMPOSITIONS” (MEMORIAL SLOAN-KETTERING CANCER CENTER, priority 2018, published 2021)

What was measured:
Day 20 PFC cultures = assay: Single genotype analysis of WNT responsiveness during PFC development (proliferation Ki67/DAPI and cell-cycle re-entry Ki67+EdU+/Ki67+); format: cell-based, human
Description: FIGS. 15a-15d provide additional data related to WNT assays. FIG. 15a provides PFC WNT response of autism lines relative to a negative control (UMOD). WNT response is measured by relative change in stem cell enrichment versus an untreated control. Red bars indicate significant increases or decreases in WNT response (FDR<0.05). FIG. 15b provides efficiency of neural crest specification relative to a negative control (UMOD). Red bars indicate significant increases or decreases in WNT response (FDR<0.05). FIG. 15c provides schematic of quantification for zebrafish jaw development at 7 dpf. A straight line is drawn from the top of the eyes, and second line is then drawn to the middle of the upper jaw. The angle between the two lines (0) is measured using ImageJ. A cut-off value of −1 s.d. (red line) from the mean (green line) of the no injection group was used to define hypomorphic animals. Graphs show raw data that underlie the hypomorph quantification in FIG. 3e. p<0.0001 for group differences calculated by non-parametric Kruskall-Wallis test, followed by dunn's test for multiple comparisons CTNNB1 p=0.0007, ANKRD11 p=0.0013, CUL3 p=0.0073, KMT2C p=0.0007. dpf, Days post fertilization. FIG. 15d provides a single genotype analysis of WNT responsiveness during PFC development. […] Day 20 PFC cultures were treated with CHIR99021 (0.6 μM) for 2 days or left untreated. At day 22, cultures were pulsed with EdU using the EdU Click-iT system according to manufacturer protocol (ThermoFisher Scientific C10640). Briefly, cells were treated with EdU for 1 hour, dissociated with Accutase for 30 minutes at 37 C, and passaged onto laminin/fibronectin coated plates at a density of 200,000-400,000 cells/cm2 in the presence of ROCK inhibitor (Y-27632, 10 μM, Tocris 1254). Cell were fixed 18 hours later and fixed for immunocytochemistry. ImageJ was used for cell counting. Images were thresholded to define individual cells (particles) and cells were counted using the analyze particle function.

[1] = system: day 35 MIX30 PFC cultures; assay: Multiplex PFC WNT response assay (CHIR99021 treatment of pooled PFC cultures, stem cell proliferation/enrichment readout); format: cell-based, human; details: 3 μM for 10 days, vs untreated
Text: In addition to probing developmental phenotypes related to cell fate specification and proliferation, the present multiplex platform also allows us to evaluate the cell-type specific activity of key molecular pathways. The WNT/βcatenin pathway is a critical regulator of stem cell proliferation and neurogenesis during cortical development (Hirabayashi et al., Development 131, 2791-2801 (2004); Munji et al., J Neurosci 31, 1676-1687 (2011); Chenn, Organogenesis 4, 76-80 (2008)) and is a central node among a network of autism-related genes (Packer, Mol Psychiatry, (2016); Krumm et al., Trends Neurosci 37, 95-105 (2014); Gilman et al., Neuron 70, 898-907 (2011)). It was therefore tested autism lines for the ability to respond to WNT/βcatenin signaling by treating day 35 MIX30 PFC cultures with the GSK3α/β inhibitor CHIR99021 (3 μM) for 10 days, using stem cell proliferation as an initial readout of WNT activity (Kim et al., Nat Neurosci 12, 1390-1397 (2009)) (FIG. 3a). […] Lineage specificity of the WNT-response phenotype was assessed by differentiating the MIX30 library to CD49d^+ cranial neural crest (CNC) precursors ([…] et al., Nature 531, 105-109 (2016)), whose specification is dependent on WNT/β catenin activity (Dorsky et al., Nature 396, 370-373 (1998)) (FIG. 3c, FIGS. 10d-10f). […] DNA was quantified using a fluorometer (Qubit 3.0, Thermo Q33216). […]

[2] = 5/5 class 1 lines compared to MEL1, 0.6 μM for 2 days

Cc1c[nH]c(-c2cnc(NCCNc3ccc(C#N)cn3)nc2-c2ccc(Cl)cc2Cl)n1 [CHIR99021]
proliferation response to CHIR (CHIR/Baseline, Ki67/DAPI) (Day 20 PFC cultures; [2]): blunted proliferation response | rates of cell-cycle re-entry (Ki67+EdU+/Ki67+) in response to CHIR (Day 20 PFC cultures; [2]): blunted response | rates of cell-cycle re-entry (Ki67+EdU+/Ki67+) in response to CHIR (Day 20 PFC cultures; control lines, 0.6 μM for 2 days): increased rates of cell-cycle re-entry | stem cell proliferation (readout of WNT activity) [1]: enhanced stem cell proliferation
